Laboratory results published in ChEMBL document CHEMBL1201862, “PubChem BioAssay data set” (2004).
The source made the active and inactive calls.

What was measured:
[1] = biological target: ALK tyrosine kinase receptor (Homo sapiens, UniProt Q9UM73); format: functional;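 further: ALK tested as one member of a kinase panel screen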
Wee1-like protein kinase = Wee1-like protein kinase (Homo sapiens, UniProt P30291); experiment: Navigating the Kinome. Panel member name: WEE1; format: functional
[2] = biological target: Melanin-concentrating hormone receptor 1 (Homo sapiens, UniProt Q99705); experiment: Late-stage fluorescence-based counterscreen for antagonists of the G-protein coupled receptor 7 (GPR7): cell-based dose response assay to identify antagonists of the melanin-concentrating hormone receptor 1 (MCHR1) Set 5.; format: functional
[3] = biological target: Protein kinase C zeta type (Homo sapiens, UniProt Q05513); format: functional;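 further: measured as one member of a broad kinase profiling panel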
[4] = biological target: Protein kinase C gamma type (Homo sapiens, UniProt P05129); format: functional
[5] = biological target: MAP kinase-activated protein kinase 3 (Homo sapiens, UniProt Q16644); format: functional;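 further: value comes from a kinome-wide profiling panel in which MAPKAPK3 is one of the panel members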
[6] = biological target: G protein-coupled receptor kinase 5 (Homo sapiens, UniProt P34947); experiment: Navigating the Kinome. Panel member name: GPRK5; format: functional
Beta-galactosidase = Beta-galactosidase (Escherichia coli, UniProt Q8VNN2); experiment: PubChem AID 485352; format: functional
[7] = biological target: Type-1 angiotensin II receptor (Homo sapiens, UniProt P30556); experiment: antagonism of angiotensin II type 1 receptor – cell-based, uHTS hits, selectivity assay for APJ receptor antagonist project, dose response (AID 463214); format: functional;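 further: antagonist potency against angiotensin II stimulated AT1 response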
[8] = blockers of HIV-1 envelope-mediated cell-cell fusion – cherry-pick, dose response (AID 652057); format: functional, cell-based
[9] = blockers of HIV-1 ZM109 envelope-driven cell-cell fusion – HeLa effector, CEM target cells, luciferase, cherry-pick, dose response (AID 652058); format: functional, cell-based;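 further: luciferase signal from HIV-1 Env mediated cell-cell fusion of effector and target cells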
[10] = off-target signal loss in HeLa-CEM21 co-culture – HeLa F-luc CTL cells, cherry-picked, counter-screen for HIV-1 Env fusion inhibitor project, dose response (AID 652040); format: functional, cell-based;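 further: potency for signal decrease marking cytotoxic or nonspecific inhibition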
[11] = HIV-1 AD8 envelope cell-cell fusion blockers – cherry-pick, dose response (AID 652062); format: functional, cell-based;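 further: luciferase signal from cell-cell fusion driven by HIV-1 clade B AD8 Env; potency is for inhibitors of fusion seen as a drop in luminescence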
Hexokinase HKDC1 = biological target: T1, Hexokinase HKDC1 (Homo sapiens, UniProt Q2TB90); experiment: activation of HKDC1 glucose phosphorylation – biochemical, W721R variant, dose response (AID 504730); format: functional
T1 sequence (Q2TB90 whole entry): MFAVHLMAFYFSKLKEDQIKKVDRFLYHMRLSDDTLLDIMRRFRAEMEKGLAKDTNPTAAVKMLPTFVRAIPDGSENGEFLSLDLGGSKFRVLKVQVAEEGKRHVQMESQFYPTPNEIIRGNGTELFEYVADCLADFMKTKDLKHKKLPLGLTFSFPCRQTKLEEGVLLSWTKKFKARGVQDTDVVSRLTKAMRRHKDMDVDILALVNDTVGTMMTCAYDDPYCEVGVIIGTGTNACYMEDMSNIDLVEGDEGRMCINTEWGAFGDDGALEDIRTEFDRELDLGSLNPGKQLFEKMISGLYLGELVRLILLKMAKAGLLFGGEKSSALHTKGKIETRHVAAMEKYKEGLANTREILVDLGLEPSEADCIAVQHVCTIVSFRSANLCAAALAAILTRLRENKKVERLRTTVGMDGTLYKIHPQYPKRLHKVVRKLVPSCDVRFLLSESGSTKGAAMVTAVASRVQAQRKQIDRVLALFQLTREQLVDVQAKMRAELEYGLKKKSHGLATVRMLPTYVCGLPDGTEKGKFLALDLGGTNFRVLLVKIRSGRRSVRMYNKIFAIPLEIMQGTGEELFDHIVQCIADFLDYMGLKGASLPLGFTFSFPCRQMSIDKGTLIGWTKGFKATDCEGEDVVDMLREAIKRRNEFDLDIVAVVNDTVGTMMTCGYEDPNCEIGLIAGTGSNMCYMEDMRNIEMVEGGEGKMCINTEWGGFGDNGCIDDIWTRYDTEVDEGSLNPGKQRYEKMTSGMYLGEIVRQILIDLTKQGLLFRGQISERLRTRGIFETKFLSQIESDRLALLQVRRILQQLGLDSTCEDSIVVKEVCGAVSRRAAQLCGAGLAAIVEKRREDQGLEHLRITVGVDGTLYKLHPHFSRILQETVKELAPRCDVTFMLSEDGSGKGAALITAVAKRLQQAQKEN

Nonstructural protein 1 = Nonstructural protein 1 (Influenza A virus, UniProt Q194T2); format: functional, Influenza A virus (A/California/07/2009(H1N1))
Hexokinase-1 = Hexokinase-1 (Homo sapiens, UniProt P19367); experiment: HK1 enzyme activation by HKDC1 hits – biochemical, selectivity assay for HKDC1 activator project, dose response (AID 504762); format: functional
[12] = biological target: Latent membrane protein 1 (Human herpesvirus 4 (strain B95-8), UniProt P03230); experiment: LMP1 TES1 pathway selectivity over dsRED control – imaging, HEK293T, dual-color eGFP/dsRED, cherry-picks, selectivity assay for LMP1 NF-kB inhibitor project, dose response (AID 588398); format: functional, cell-based
Sequence of Latent membrane protein 1 (P03230 whole entry): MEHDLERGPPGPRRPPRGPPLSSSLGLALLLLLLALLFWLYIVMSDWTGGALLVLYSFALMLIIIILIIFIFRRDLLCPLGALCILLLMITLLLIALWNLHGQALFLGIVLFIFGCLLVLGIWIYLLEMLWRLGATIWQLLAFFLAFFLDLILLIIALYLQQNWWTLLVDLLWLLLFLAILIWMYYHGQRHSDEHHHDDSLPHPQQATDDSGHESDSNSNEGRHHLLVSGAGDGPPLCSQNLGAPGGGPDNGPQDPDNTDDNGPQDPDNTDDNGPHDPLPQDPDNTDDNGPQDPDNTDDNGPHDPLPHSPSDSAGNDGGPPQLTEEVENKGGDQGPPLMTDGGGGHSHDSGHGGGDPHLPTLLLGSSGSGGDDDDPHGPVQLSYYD

Sequence of Nonstructural protein 1 (Q194T2 whole entry): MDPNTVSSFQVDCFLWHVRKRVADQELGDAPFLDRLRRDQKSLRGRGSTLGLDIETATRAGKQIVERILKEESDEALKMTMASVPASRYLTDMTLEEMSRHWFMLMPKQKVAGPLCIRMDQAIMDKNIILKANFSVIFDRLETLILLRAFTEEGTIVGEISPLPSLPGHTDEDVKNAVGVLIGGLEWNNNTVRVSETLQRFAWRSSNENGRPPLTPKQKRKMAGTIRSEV
Sequence of Beta-galactosidase (Q8VNN2 whole entry): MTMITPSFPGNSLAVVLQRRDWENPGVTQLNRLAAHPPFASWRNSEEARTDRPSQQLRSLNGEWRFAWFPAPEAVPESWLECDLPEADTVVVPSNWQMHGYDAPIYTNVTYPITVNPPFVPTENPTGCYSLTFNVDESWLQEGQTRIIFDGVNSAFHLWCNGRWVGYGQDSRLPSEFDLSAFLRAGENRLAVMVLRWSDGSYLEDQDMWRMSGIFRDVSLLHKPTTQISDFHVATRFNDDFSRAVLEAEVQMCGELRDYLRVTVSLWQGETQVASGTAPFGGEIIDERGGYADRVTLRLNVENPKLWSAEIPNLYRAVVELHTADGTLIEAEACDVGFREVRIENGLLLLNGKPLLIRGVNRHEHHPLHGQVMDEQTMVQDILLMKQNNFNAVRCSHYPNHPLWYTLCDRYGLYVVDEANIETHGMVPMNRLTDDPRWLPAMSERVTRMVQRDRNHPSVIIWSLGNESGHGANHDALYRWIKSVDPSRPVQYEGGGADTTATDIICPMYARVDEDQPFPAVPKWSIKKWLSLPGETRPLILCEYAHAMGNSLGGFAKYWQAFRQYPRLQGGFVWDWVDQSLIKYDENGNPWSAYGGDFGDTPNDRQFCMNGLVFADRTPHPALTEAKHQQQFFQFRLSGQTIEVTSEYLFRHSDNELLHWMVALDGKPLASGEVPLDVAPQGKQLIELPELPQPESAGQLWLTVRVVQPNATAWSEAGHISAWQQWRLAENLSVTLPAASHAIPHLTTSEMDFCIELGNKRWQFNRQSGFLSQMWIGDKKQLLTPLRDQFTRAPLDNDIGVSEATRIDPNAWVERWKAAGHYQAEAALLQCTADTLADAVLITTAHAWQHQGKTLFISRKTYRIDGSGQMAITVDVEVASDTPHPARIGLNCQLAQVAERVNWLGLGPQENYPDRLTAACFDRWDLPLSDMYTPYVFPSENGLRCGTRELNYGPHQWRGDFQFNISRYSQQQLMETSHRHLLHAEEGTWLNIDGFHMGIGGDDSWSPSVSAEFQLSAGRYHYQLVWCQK
Sequence of MAP kinase-activated protein kinase 3 (Q16644 whole entry): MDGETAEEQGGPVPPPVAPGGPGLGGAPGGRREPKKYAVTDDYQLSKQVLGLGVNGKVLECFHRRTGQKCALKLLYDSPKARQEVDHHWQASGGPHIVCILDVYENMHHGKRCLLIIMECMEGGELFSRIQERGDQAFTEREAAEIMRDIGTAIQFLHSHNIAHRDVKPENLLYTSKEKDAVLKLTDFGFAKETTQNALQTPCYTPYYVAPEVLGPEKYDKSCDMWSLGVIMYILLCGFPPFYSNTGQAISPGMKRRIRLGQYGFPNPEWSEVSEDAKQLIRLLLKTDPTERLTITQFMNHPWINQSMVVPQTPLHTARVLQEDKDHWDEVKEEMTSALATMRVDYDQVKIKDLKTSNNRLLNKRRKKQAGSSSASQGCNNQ
Sequence of Protein kinase C zeta type (Q05513 whole entry): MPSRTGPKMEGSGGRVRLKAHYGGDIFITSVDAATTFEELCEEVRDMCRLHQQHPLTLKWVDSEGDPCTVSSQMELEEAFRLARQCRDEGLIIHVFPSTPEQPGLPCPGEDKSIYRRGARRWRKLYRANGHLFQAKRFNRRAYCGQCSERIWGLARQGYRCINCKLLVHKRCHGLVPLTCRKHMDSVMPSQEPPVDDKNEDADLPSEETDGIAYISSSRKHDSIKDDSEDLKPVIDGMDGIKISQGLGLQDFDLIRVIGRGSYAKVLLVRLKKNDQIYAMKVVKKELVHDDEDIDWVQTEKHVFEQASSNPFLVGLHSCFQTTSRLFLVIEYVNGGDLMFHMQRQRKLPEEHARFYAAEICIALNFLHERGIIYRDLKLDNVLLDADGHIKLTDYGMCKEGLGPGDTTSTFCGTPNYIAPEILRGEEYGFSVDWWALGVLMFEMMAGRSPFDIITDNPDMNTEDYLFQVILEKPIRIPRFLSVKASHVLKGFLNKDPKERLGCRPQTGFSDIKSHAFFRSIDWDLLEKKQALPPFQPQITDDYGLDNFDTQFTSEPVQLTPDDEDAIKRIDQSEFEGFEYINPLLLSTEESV
Sequence of G protein-coupled receptor kinase 5 (P34947 whole entry): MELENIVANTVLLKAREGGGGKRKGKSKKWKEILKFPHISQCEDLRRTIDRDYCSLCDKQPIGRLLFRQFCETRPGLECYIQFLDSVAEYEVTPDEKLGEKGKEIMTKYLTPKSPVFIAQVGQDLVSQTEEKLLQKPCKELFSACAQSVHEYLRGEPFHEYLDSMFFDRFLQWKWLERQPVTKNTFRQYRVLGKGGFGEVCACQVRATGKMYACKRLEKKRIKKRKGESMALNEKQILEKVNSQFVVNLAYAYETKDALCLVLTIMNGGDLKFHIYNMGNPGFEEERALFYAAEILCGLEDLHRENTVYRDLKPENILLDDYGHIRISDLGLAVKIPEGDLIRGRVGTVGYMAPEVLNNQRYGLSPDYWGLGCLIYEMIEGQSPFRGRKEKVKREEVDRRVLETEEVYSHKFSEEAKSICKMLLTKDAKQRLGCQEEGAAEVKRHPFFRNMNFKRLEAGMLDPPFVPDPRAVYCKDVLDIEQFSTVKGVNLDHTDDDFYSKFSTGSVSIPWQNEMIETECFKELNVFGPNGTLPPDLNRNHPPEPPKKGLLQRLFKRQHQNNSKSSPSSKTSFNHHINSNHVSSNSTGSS
Sequence of Hexokinase-1 (P19367 whole entry): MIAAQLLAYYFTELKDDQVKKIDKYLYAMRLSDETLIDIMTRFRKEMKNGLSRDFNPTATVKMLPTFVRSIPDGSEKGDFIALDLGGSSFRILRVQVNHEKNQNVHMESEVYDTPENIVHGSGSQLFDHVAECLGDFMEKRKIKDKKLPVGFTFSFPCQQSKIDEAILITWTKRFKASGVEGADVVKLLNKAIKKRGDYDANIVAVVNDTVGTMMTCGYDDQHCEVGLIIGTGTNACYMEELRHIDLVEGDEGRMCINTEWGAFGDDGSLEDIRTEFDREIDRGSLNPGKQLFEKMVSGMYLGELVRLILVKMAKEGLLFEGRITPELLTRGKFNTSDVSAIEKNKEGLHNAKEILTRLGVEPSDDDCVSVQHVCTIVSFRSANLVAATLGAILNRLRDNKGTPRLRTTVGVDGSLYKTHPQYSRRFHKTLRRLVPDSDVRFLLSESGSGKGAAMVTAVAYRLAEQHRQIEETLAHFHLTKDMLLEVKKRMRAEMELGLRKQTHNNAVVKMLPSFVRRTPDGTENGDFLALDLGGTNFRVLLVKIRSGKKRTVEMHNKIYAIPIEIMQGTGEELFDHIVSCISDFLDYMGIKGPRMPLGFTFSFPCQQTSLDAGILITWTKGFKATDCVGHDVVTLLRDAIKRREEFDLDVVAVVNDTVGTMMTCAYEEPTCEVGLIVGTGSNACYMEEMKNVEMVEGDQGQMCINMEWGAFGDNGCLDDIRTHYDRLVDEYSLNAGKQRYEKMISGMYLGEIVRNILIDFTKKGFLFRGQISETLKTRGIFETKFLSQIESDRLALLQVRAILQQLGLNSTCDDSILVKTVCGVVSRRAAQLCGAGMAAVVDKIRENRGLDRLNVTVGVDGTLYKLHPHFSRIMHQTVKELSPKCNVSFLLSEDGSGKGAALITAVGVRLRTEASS

**Q.** For CCNc1nc(C)c(-c2ccnc(Nc3ccc(N4CCNCC4)cc3)n2)s1, which Ki [1] is on record?
**A.** 0.2 µM (active)

**Q.** And the Ki (Wee1-like protein kinase)?
**A.** 0.0794 µM (active)

**Q.** For COc1ccc(Oc2c(Cl)cnn(Cc3cccc4ccccc34)c2=O)cc1OC, which IC50 [2] is on record?
**A.** 1.44 µM (active)

**Q.** Which Ki [3] does the source give for O=c1ncn2nc(Sc3ccc(F)cc3F)ccc2c1-c1c(Cl)cccc1Cl [NEFLAMAPIMOD] here?
**A.** > 7.94 µM (inactive)

**Q.** And the Ki [4]?
**A.** > 7.94 µM (inactive)

**Q.** And the Ki [5]?
**A.** > 10 µM (inactive)

**Q.** What about the Ki [6] of the same molecule?
**A.** > 3.98 µM (inactive)

**Q.** Which EC50 (Beta-galactosidase) does the source give for O=C(CNc1ccc(F)cc1)c1ccccc1 here?
**A.** > 40 µM (inactive)

**Q.** What about the IC50 [7] of the same molecule?
**A.** 7.06 µM (active)

**Q.** What about the AC50 [8] of the same molecule?
**A.** 1.54 µM (active)

**Q.** What about the AC50 [9] of the same molecule?
**A.** 1.17 µM (active)

**Q.** What about the AC50 [10] of the same molecule?
**A.** 1.57 µM (active)

**Q.** What about the AC50 [11] of the same molecule?
**A.** 4.61 µM (active)

**Q.** Which EC50 (Hexokinase HKDC1) does the source give for COc1ccccc1NC(=S)NN=C(C)c1ccccn1 here?
**A.** 3.03 µM (active)

**Q.** And the IC50 (Nonstructural protein 1)?
**A.** 25.8 µM (active)

**Q.** What about the EC50 (Hexokinase-1) of the same molecule?
**A.** > 80 µM (inactive)

**Q.** And the AC50 [12]?
**A.** 0.638 µM (active)
